# Measurements: patent US9499530B2 (HANGZHOU MINSHENG INSTITUTES FOR PHARMA RESEARCH, priority 2011, dated 2016)
# “Also recorded” adds a separate entry of the source.
# Columns and labels:
# ErbB-4 = ErbB-4 (Homo sapiens, UniProt Q15303); experiment: ELISA protein tyrosine kinase inhibition, ErbB-4; format: biochemical; conditions: for IC50: ELISA, Poly(Glu, Tyr) 4:1 substrate, ATP 5 μM, test samples at 10-5 mol/l, read-out: ErbB4 inhibitory activity (IC50 class)
# Text: (§1) Determining the Effect of Test Samples at a Concentration of 10-5 Mol/l on the Activity of the Substrate Phosphoryation Catalyzed by EGFR (Epidermal Growth Factor Receptor 1), ErbB-2 (Epidermal Growth Factor Receptor 2), ErbB-4, KDR (Vascular Endothelial Growth Factor Receptor 2) Protein Tyrosine Kinases at Molecular Level
# (§2) Enzyme-Linked Immunosorbent Assay (ELISA)
# (§3) Main instrument: wavelength-tunable microplate reader (VERSAmax).
# (§4) Main reagents: kinase reaction substrate Poly(Glu, Tyr) 4:1 from Sigma; anti-phosphotyrosine monoclonal antibody PY99 from Santa Cruz; horseradish peroxidase-labeled goat anti-mouse IgG from Calbiochem; ATP, DTT, OPD from Amresco, and ELISA plate from Corning.
# (§5) Poly(Glu, Tyr)4:1 as an enzyme substrate was diluted by potassium ion-free PBS into 20 μg/ml, and an ELISA plate was coated and subjected to reaction for 12-16 h at 37° C. After the liquid in wells was removed, the plate was washed three time by T-PBS, 5 min for each time. The ELISA plate was then dried in an oven at 37° C. The coated wells were added with the test samples: the test samples were prepared for a stock solution with a concentration of 1×10^−2M in DMSO. The aliquot solution was stored at −20° C., and diluted to the desired concentration with reaction buffer before use. The resulting solution was added into the wells so that the final concentration of 10-5 mol/l in 100 μL reaction system can be obtained. At the same time, a positive control well was set up and a positive control compound Su11248 was added. ATP and test tyrosine kinases were added: ATP solution diluted with reaction buffer was added (the final concentration of ATP is 5 μM). Finally, the test tyrosine kinases solution diluted with reaction buffer was added. The total volume of the reaction system was […]. Meanwhile, a negative control well and a control well without enzyme were set up. The reaction system was placed in a wet box, and shaked for 1 hour at 37° C., shielding from light. After the reaction was complete, the plate was washed by T-PBS three times. Antibody PY99 was added at 100 μL/well; and the plate was shaked for 30 min at 37° C. After the reaction was complete, the plate was washed with T-PBS three times. Horseradish peroxidase-labeled goat anti-mouse IgG was added at 100 μL/well, and the plate was shaked for 30 min at 37° C. The plate was washed with T-PBS three times. OPD developing liquid was added at 100 μL/well, and reacted for 1-10 min at room temperature, shielding from light. 50 μL of 2 M H2SO4 was added to stop the reaction. A492 value was determined using wavelength-tunable microplate reader. The inhibition ratio of the samples can be calculated by the following equation: […]
# [1] = target: EGFR (Epidermal Growth Factor Receptor 1) (Homo sapiens, UniProt P00533); experiment: ELISA protein tyrosine kinase inhibition, EGFR; format: biochemical; conditions: for IC50: ELISA, Poly(Glu, Tyr) 4:1 substrate, ATP 5 μM, test samples at 10-5 mol/l, read-out: EGFR inhibitory activity (IC50 class)
# Text: as §1, §2, §3, §4, §5
# [2] = target: KDR (Vascular Endothelial Growth Factor Receptor 2) (Homo sapiens, UniProt P35968); experiment: ELISA protein tyrosine kinase inhibition, KDR; format: biochemical; conditions: for IC50: ELISA, Poly(Glu, Tyr) 4:1 substrate, ATP 5 μM, test samples at 10-5 mol/l, read-out: KDR inhibitory activity (IC50 class)
# KDR (Vascular Endothelial Growth Factor Receptor 2), sequence (P35968 20-1356): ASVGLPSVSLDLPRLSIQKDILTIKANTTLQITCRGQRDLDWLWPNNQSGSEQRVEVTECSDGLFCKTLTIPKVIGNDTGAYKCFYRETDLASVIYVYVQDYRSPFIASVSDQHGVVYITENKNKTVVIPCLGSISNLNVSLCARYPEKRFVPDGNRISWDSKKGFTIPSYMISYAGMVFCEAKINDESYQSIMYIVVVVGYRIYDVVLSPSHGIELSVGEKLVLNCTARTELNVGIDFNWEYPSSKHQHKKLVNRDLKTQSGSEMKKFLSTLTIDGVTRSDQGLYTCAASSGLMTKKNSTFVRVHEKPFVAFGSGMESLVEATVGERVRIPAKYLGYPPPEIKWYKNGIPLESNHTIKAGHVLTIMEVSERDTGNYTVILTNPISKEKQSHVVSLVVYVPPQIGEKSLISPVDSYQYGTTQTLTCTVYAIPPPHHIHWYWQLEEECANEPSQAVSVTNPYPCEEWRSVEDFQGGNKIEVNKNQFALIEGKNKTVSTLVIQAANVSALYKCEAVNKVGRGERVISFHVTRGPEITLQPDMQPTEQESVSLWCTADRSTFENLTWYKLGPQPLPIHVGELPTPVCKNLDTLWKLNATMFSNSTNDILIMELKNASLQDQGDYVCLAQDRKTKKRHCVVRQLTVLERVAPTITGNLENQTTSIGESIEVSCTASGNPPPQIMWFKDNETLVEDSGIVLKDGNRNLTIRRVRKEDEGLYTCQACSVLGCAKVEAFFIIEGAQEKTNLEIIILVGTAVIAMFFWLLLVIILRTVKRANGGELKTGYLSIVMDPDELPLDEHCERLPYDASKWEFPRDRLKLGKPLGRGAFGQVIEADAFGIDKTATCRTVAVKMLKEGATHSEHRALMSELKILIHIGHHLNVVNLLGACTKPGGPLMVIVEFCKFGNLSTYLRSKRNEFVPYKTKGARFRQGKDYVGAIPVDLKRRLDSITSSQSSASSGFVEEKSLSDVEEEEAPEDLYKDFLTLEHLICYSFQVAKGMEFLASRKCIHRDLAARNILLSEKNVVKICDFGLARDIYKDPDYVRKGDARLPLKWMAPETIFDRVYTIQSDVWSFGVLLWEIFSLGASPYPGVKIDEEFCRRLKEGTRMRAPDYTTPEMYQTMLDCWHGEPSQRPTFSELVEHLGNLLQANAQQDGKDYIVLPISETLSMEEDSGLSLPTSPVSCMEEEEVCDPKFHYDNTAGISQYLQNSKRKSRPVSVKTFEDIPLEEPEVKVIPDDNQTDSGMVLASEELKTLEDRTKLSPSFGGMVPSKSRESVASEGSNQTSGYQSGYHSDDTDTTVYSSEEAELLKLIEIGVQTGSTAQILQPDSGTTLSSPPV
# Text: as §1, §2, §3, §4, §5
# [3] = target: ErbB-2 (Epidermal Growth Factor Receptor 2) (Homo sapiens, UniProt P04626); experiment: ELISA protein tyrosine kinase inhibition, ErbB-2; format: biochemical; conditions: Poly(Glu, Tyr) 4:1 substrate, ATP 5 μM, test samples at 10-5 mol/l, read-out: ErbB2 inhibitory activity (IC50 class)
# Text: as §1, §2, §3, §4, §5
# [4] = system: human lung cancer A549 xenograft; experiment: Growth inhibition of A549 xenograft in nude mice; format: in vivo; conditions: for growth inhibition of human lung cancer A549 compared with positive control lapatinib (in words): xenograft in nude mice, 200 mg/kg
# Text: Objective of the test: Determining the inhibition of some compounds of the present invention to the growth of human lung cancer A549 transplanted into nude mice and the action intensity thereof.
# 1. Human lung cancer A549 xenograft in nude mice, which was set up by subcutaneously transplantion of the human lung cancer A549 cell lines into right axillary fossa of nude mice. The amount of inoculation is 2×10^6 cells/mouse. Xenograft inoculated into the nude mice was passaged for 3 generations before use.
# 2. The solvent used in the experiments is: 0.5% of hydroxypropylmethyl cellulose and 0.1% of Tween-80.
# 3. Vigorous growing tumor tissues were selected to be chopped into approximately 1 mm^3. Under sterile conditions, the tumor tissue blocks were subcutaneously transplanted into right axillary fossa of nude mice. The diameters of the xenograft in nude mice were measured with a vernier caliper. When tumors reached approximately 100-300 mm^3 in size, the animals were randomly divided into groups, wherein there are 12 animals in solvent control group, and 6 animals per group in the other groups. […] The administered dosages were both 200 mg/kg, 5 times per week for consecutive four weeks. The diameters of the tumors were measured twice per week. The negative control group was intragastricly administrated the same amount of solvent. After the experiment, the mice were sacrificed. The tumors were surgically stripped and weighed. The tumor volume (TV) was calculated by the following equation:
# [formula] in which a and b represents for the length and the width respectively.
# According to the measured results, the relative tumor volume (RTV) was calculated. The calculation equation was: RTV=Vt/V0, wherein V0 is the tumor volume measured during cage administration (i.e. d0), Vt is the tumor volume of each measurement. The evaluation index of anti-tumor activity was the relative tumor growth ratio T/C (%), which was calculated by the following equation: […]
# TRTV: treatment group's RTV; CRTV: negative control group's RTV.
# ErbB-4, sequence (Q15303 26-1308): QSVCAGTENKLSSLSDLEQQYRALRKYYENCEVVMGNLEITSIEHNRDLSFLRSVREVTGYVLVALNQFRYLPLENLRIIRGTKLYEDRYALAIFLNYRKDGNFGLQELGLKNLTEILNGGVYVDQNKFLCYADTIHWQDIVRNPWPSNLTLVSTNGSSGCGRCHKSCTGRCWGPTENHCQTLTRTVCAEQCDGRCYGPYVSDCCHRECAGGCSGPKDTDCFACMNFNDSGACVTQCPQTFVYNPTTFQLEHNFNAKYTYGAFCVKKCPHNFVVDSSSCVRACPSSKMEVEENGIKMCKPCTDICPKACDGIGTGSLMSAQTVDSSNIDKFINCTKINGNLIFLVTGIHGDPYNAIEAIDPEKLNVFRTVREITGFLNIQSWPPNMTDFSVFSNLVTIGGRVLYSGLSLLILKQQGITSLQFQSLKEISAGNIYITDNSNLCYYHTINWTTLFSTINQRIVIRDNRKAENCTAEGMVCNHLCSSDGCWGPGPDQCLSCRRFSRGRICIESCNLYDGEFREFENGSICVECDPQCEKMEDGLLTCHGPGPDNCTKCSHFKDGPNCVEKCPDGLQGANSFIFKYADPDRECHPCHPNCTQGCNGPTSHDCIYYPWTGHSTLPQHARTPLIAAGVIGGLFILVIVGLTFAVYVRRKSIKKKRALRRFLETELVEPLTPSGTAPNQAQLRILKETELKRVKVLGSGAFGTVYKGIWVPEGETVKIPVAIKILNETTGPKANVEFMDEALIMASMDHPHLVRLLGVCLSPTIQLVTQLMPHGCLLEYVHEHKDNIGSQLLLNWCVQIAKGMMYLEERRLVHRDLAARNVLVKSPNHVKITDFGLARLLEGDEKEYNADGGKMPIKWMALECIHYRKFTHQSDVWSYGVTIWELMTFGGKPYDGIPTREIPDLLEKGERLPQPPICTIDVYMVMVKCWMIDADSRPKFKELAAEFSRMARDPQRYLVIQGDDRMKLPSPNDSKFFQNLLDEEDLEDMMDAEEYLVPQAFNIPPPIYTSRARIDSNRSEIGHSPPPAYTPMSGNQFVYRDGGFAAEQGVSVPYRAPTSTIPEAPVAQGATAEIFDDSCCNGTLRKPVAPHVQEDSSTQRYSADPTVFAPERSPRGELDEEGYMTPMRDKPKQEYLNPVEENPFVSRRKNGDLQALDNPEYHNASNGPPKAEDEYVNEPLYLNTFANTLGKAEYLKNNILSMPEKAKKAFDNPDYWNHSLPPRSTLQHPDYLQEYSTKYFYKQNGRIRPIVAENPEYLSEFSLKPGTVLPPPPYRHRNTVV
IC50 [1],IC50 [2],IC50 [3],Compound,inhibitory activity against KDR (in words) [2],further results
< 10 µM,< 10 µM,< 10 µM,CC(=O)OCCNCc1ccc(-c2ccc3ncnc(Nc4ccc(OCc5cccc(F)c5)c(Cl)c4)c3c2)o1,,IC50 (ErbB-4): < 10 µM
,,,"OCCCCNCc1ccc(-c2ccc3ncnc(Nc4ccc(OCc5cccc(F)c5)c(Cl)c4)c3c2)o1 [MS1, N-(3-chloro-4-((3-fluorobenzyl)oxy)phenyl)-6-(5-(((4-hydroxybutyl)amino)methyl)-2-furyl)-4-quinazolinamine]",better inhibitory activity; also recorded: higher inhibitory activity,
< 10 µM,< 10 µM,< 10 µM,"OCCCCNCc1ccc(-c2ccc3ncnc(Nc4ccc(OCc5cccc(F)c5)c(Cl)c4)c3c2)o1 [MS1·dimethanesulfonate, N-(3-chloro-4-((3-fluorobenzyl)oxy)phenyl)-6-(5-(((4-hydroxybutyl)amino)methyl)-2-furyl)-4-quinazolinamine]",,IC50 (ErbB-4): < 10 µM
,,,"OCC(CO)NCc1ccc(-c2ccc3ncnc(Nc4ccc(OCc5cccc(F)c5)c(Cl)c4)c3c2)o1 [MS6, N-(3-chloro-4-((3-fluorobenzyl)oxy)phenyl)-6-(5-((2-(1,3-dihydroxypropyl)amino)methyl)-2-furyl)-4-quinazolinamine]",better inhibitory activity; also recorded: higher inhibitory activity,growth inhibition of human lung cancer A549 compared with positive control lapatinib (in words) [4]: better effective inhibition; also recorded: better growth inhibition effect
,,,"OCCN(CCO)Cc1ccc(-c2ccc3ncnc(Nc4ccc(OCc5cccc(F)c5)c(Cl)c4)c3c2)o1 [MS18, N-(3-chloro-4-((3-fluorobenzyl)oxy)phenyl)-6-(5-((bis(2-hydroxyethyl)amino)methyl)-2-furyl)-4-quinazolinamine]",better inhibitory activity; also recorded: higher inhibitory activity,
< 10 µM,< 10 µM,< 10 µM,"OCCN(CCO)Cc1ccc(-c2ccc3ncnc(Nc4ccc(OCc5cccc(F)c5)c(Cl)c4)c3c2)o1 [MS18·dimethanesulfonate, N-(3-chloro-4-((3-fluorobenzyl)oxy)phenyl)-6-(5-((bis(2-hydroxyethyl)amino)methyl)-2-furyl)-4-quinazolinamine]",,IC50 (ErbB-4): < 10 µM
,,,"OCCNCc1ccc(-c2ccc3ncnc(Nc4ccc(OCc5cccc(F)c5)c(Cl)c4)c3c2)o1 [MS27, N-(3-chloro-4-((3-fluorobenzyl)oxy)phenyl)-6-(5-(((2-hydroxyethyl)amino)methyl)-2-furyl)-4-quinazolinamine]",better inhibitory activity; also recorded: higher inhibitory activity,growth inhibition of human lung cancer A549 compared with positive control lapatinib (in words) [4]: better effective inhibition; also recorded: better growth inhibition effect
,,,"OCC(O)CNCc1ccc(-c2ccc3ncnc(Nc4ccc(OCc5cccc(F)c5)c(Cl)c4)c3c2)o1 (stereo not shown) [MS31, N-(3-chloro-4-((3-fluorobenzyl)oxy)phenyl)-6-(5-(1-(2,3-dihydroxypropyl)amino)methyl-2-furyl)-4-quinazolinamine]",better inhibitory activity; also recorded: higher inhibitory activity,
,> 10 µM,< 10 µM,"Fc1ccc(Nc2ncnc3ccc(-c4ccc(CNCCC5=CCCCC5)o4)cc23)cc1Cl [MS41, N-(3-chloro-4-fluorophenyl)-6-(5-(((2-(cyclohexenyl)ethyl)amino)methyl)-2-furyl)-4-quinazolinamine]",,
,,,OCCCNCc1ccc(-c2ccc3ncnc(Nc4ccc(OCc5cccc(F)c5)c(Cl)c4)c3c2)o1 [MS42],better inhibitory activity; also recorded: higher inhibitory activity,
< 10 µM,< 10 µM,> 10 µM,"Fc1cccc(COc2ccc(Nc3ncnc4ccc(-c5ccc(CNCC6CCCCC6)o5)cc34)cc2Cl)c1 [MS 7, N-(3-chloro-4-((3-fluorobenzyl)oxy)phenyl)-6-((5-((cyclohexylmethyl)amino)methyl)-2-furyl)-4-quinazolinamine]",,
< 10 µM,< 10 µM,> 10 µM,"Fc1cccc(COc2ccc(Nc3ncnc4ccc(-c5ccc(CNCC6CCCC(Cl)C6)o5)cc34)cc2Cl)c1 (stereo not shown) [MS 9, N-(3-chloro-4-((3-fluorobenzyl)oxy)phenyl)-6-(5-((((3-chlorocyclohexyl)methyl)amino)methyl)-2-furyl)-4-quinazolinamine]",,
< 10 µM,> 10 µM,< 10 µM,"Fc1cccc(COc2ccc(Nc3ncnc4ccc(-c5ccc(CNCCc6cccc(Cl)c6)o5)cc34)cc2Cl)c1 [MS 20, N-(3-chloro-4-((3-fluorobenzyl)oxy)phenyl)-6-(5-(((2-(3-chlorophenyl)ethyl)amino)methyl)-2-furyl)-4-quinazolinamine]",,
< 10 µM,,< 10 µM,"CSCCC(NCc1ccc(-c2ccc3ncnc(Nc4ccc(OCc5cccc(F)c5)c(Cl)c4)c3c2)o1)C(=O)O (stereo not shown) [MS 26, N-(3-chloro-4-((3-fluorobenzyl)oxy)phenyl)-6-(5-((((1-carboxy-3-methylthio)propyl)amino)methyl)-2-furyl)-4-quinazolinamine]",,growth inhibition of human lung cancer A549 compared with positive control lapatinib (in words) [4]: better effective inhibition
,> 10 µM,< 10 µM,"CCCNCc1ccc(-c2ccc3ncnc(Nc4ccc(F)c(Cl)c4)c3c2)o1 [MS 36, N-(3-chloro-4-fluorophenyl)-6-(5-(((propyl)amino)methyl)-2-furyl)-4-quinazolinamine]",,"TV (mm^3) End ([4]; A549 xenograft, 200 mg/kg intragastric, 5 times per week for four weeks, end): 770.3 ± 212.8^▴ mm^3; TV (mm^3) Start ([4]; A549 xenograft, 200 mg/kg intragastric, start of dosing): 155.5 ± 72.8 mm^3; T/C (%) ([4]; A549 xenograft, relative tumor growth ratio, 200 mg/kg intragastric, 5 times per week for four weeks): 36.1%; Weight (g) End ([4]; nude mice with A549 xenograft, 200 mg/kg intragastric, 5 times per week for four weeks, end): 25.0 ± 1.8 g; Weight (g) Start ([4]; nude mice with A549 xenograft, 200 mg/kg intragastric, start of dosing): 24.5 ± 1.8 g; growth inhibition of human lung cancer A549 compared with positive control lapatinib (in words) [4]: better growth inhibition effect"
,> 10 µM,< 10 µM,"CC=CCNCc1ccc(-c2ccc3ncnc(Nc4ccc(F)c(Cl)c4)c3c2)o1 [MS 39, N-(3-chloro-4-fluorophenyl)-6-(5-(((2-butenyl)amino)methyl)-2-furyl)-4-quinazolinamine]",,
< 10 µM,,< 10 µM,N-(3-chloro-4-((3-fluorobenzyl)oxy)phenyl)-6-(5-((4-methylpiperazinyl)methyl)-2-pyrrolidinyl)-4-quinazolinamine [MS 34],,inhibition of c-ErbB4/HER4 (in words) (ErbB-4): very good inhibition; IC50 (ErbB-4): < 10 µM; inhibitory activity against EGFR (in words) [1]: better inhibitory activity
